# Data: paper PMC6756013, “B591, a novel specific pan-PI3K inhibitor, preferentially targets cancer stem cells” (Oncogene, 2019)
# How the values were obtained:
# MDA-MB-231 cells = assay: Cell cycle analysis; type: cell-based, human; conditions: 24 h
# Protocol: MDA-MB-231 cells were seeded in six-well plates at a density of 4×10^5 cells per well. The next day, cells were treated with B591 (0, 2.5, 5, 10 μM) for 24 h. Then the cells were trypsinized, centrifuged at 300 g for 5 minutes and fixed in 1 ml of 70 % cold ethanol. After incubation at -20℃ overnight, the cells were collected by centrifugation at 500 g for 5 min and pellets were resuspended in 500 μl PBS containing 300 μg/ml of RNase (Sigma, MO, USA). After incubation at 37 ℃ for 30 min, the pellets were stained with 100 μg/ml of propidium iodine (Sigma, MO, USA) for 20 min. Cell cycle distribution was determined by flow cytometry (FACScaliber, Becton Dickinson).
# [1] = test system: MDA-MB-231 and SUM-159PT monolayer and mammosphere cells; assay: Proliferation inhibition of monolayer versus mammosphere cells; type: cell-based, human
# Protocol: The proliferation inhibitory activities of B591 were compared between monolayer and mammosphere cells.
# (§1) Cells were treated with indicated agents for 48 h, and cells were harvested and processed for apoptosis assay using the PE-Annexin V/7-AAD Apoptosis Detection Kit. d Representative flow cytometry plots of apoptosis inducing activity of B591 (10 μM) and paclitaxel (10 nM) on monolayer and mammosphere MDA-MB-231 cells. e B591 preferentially targeted CD44^high/CD24^low cells. Cells were treated with B591 or paclitaxel for 2 days. Following a 4-day recovery period, cells were co-stained with CD44 and CD24 antibodies and subjected to FACS analysis. Representative flow cytometry plots show the effect of B591 on CD44^high/CD24^low population in MDA-MB-231 cells in vitro. f B591 decreased mammosphere forming efficiency. Primary MDA-MB-231 mammospheres were treated with B591 or paclitaxel for 48 h. Results of the secondary mammosphere-formation assay are shown. Scale bar represents 40 μm. g B591 decreased the expression of CSC markers in MDA-MB-231 cells. Cells were treated with B591 or paclitaxel for 2 days. […] They label a gated population in plots with axes CD44 and CD24. / Panel E: DMSO is the vehicle control. Its printed value is included all the same.
# [2] = test system: MDA-MB-231 and SUM-159PT monolayer and mammosphere cells; assay: Apoptosis of monolayer versus mammosphere cells (PE-Annexin V/7-AAD); type: cell-based, human; conditions: 48 h
# Protocol: as §1
# Supplementary Fig. S10. B591 preferentially targets CSCs. […] Following a 4-day recovery period, the expression of CSC markers was analyzed with western blot analysis.
# [3] = test system: ALDHhigh fractions in SUM-159PT cells; assay: ALDH activity assay (ALDEFLUOR); type: cell-based; conditions: 4 µM
# Protocol: Cells were treated with B591 for 24 h, then the cell suspension was incubated with 20 μl of CD44-APC (#559942, BD Pharmingen, Franklin Lakes, NJ, USA) and 20 μl of CD24-PE (#555428, BD Pharmingen) antibodies for 30 min in dark at 4 ℃. Phenotype was detected by BD FACSCalibur, and data was analyzed with Flowjo. ALDH activity was analyzed with ALDEFLUOR Kit (STEMCELL Technologies, Vancouver, BC, Canada) according to the manufacture’s protocol.
# SUM-159PT cells = assay: Mammosphere formation after paclitaxel pre-treatment; type: cell-based; conditions: 8 nM Paclitaxel or 8 nM Paclitaxel plus 5 μM B591 for 24 h
# Protocol: (§2) Fig. 6 B591 reduces breast tumor metastasis and recurrence. a Representative images show the effect of B591 (8 mg/kg) on lung metastasis of 4T1 cells, and data from six mice were plotted. b SUM-159PT cells were respectively treated with the indicated agents (8 nM Paclitaxel, 8 nM Paclitaxel plus 5 μM B591) for 24 h, the cells were then cultured for mammospheres. Representative images were shown, and data from two independent experiments were plotted. c–f SUM-159PT xenografts (n = 7) were treated with 4 mg/kg Paclitaxel, or 10 mg/kg B591, or both for 2 weeks, then ended the treatment and waited for tumor recurrence. Tumor volume (c) and body weight (d) were measured every 2 days after treatment, and tumors were photographed (e) and weighted (f) at the end of the experiment. ^*p < 0.05, ^**p < 0.01 versus indicated groups
# Based on the finding that B591 preferentially targets CSCs, we supposed that by eliminating the breast CSCs, B591 might delay breast tumor recurrence after initial treatment with chemotherapy drugs. Paclitaxel is a first-line chemotherapeutic agent used for breast cancer therapy. SUM-159PT cells were pre-treated with paclitaxel, and then the cells remaining alive were cultured for mammospheres.
# [4] = test system: SUM-159PT orthotopic xenografts; assay: Tumor recurrence study in SUM-159PT xenografts; type: in vivo, NOD/SCID mice; conditions: B591 10 mg/kg
# Protocol: as §2
# In the tumor recurrence study, orthotopic xenografts were established with 5 × 10^6 SUM-159PT cells. When tumor volume reached about 50 mm^3, mice were randomly divided into four groups for treatment with vehicle, 4 mg/kg Paclitaxel, 10 mg/kg B591, and combination of 4 mg/kg Paclitaxel plus 10 mg/kg B591 (i.p.). Treatment was stopped after 2 weeks, and the tumors were allowed for recurrence for 3 weeks. Tumor volume and the body weight of mice were measured during the experiments. In the end of treatment, the mice were killed, and the tumor tissues were dissected and weighted.
structure (smiles),measurement,setting,value
"Cc1cc2c(cc1C)[n+](Cc1ccccc1Br)cn2Cc1ccc2c(c1)CCO2.[Br-] [B591, 3-(2-bromobenzyl)-1-((2,3-dihydrobenzofuran-5-yl)methyl) -5,6-dimethyl-1H-benzo[d]imidazol-3-ium bromide]",Cell cycle distribution,MDA-MB-231 cells,effectively arrested cells in G0/G1 phase
same,"Proliferation inhibitory activity, mammosphere versus monolayer cells",[1],more potent against mammosphere cells
same,"Apoptosis induction, mammosphere versus monolayer populations",[2],preferentially induced the apoptosis of mammosphere populations
same,Reduction of ALDHhigh fractions,[3],90%
same,Formation of mammospheres / paclitaxel-enriched CSCs,SUM-159PT cells,the paclitaxel-enriched CSCs were effectively eliminated
same,Body weight,[4]; with or without paclitaxel 4 mg/kg,no significant body weight loss
same,Tumor growth and regrowth after end of treatment,"[4]; paclitaxel 4 mg/kg, i.p., 2 weeks, then 3 weeks recurrence",significant inhibition of tumor growth and notably delayed the relapse of breast cancer following cessation of paclitaxel treatment
